The supplement of paper PMC4862054

test system: MDA-MB-436; assay: normalised response (% of control), CellTiter-Glo; higher = more viable cells (100 = DMSO, 0 = benzethonium chloride kill control); conditions: incubation time: 72 h
Summary of the method: (§1)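 Breast cancer cell lines, seeded at 20 µl suspension per well, were incubated for 72 h in 384-well plates containing compound at 5 concentrations. These concentrations rose in 10-fold steps over a 10,000-fold range set for each compound. CellTox Green fluorescence (485/520 nm) was read, then CellTiter-Glo luminescence after 10 min at room temperature, and each plate was normalised to 0.1 % DMSO (100) and a positive kill control (0). Values are normalised signals, each at one concentration.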

Question: With CCC1(c2ccc(N)cc2)CCC(=O)NC1=O (configuration not stated) [Aminoglutethimide] (1 nM) as the compound, how does the normalised response read?
Answer: 87.3%

Question: Which normalised response does the source give for COc1cc2nccc(Oc3ccc(NC(=O)C4(C(=O)Nc5ccc(F)cc5)CC4)cc3)c2cc1OC [Cabozantinib] (0.1 nM) here?
Answer: 83.3%

Question: With C[C@@H](Oc1cc(-c2cnn(C3CCNCC3)c2)cnc1N)c1c(Cl)ccc(F)c1Cl [Crizotinib] (1 nM) as the compound, how does the normalised response read?
Answer: 103%

test system: MDA-MB-468; assay: as above; conditions: incubation time: 72 h
Summary of the method: as §1

Question: With CN(N=O)C(=O)N[C@@H](C=O)[C@@H](O)[C@H](O)[C@H](O)CO [Streptozocin] (1 nM) as the compound, how does the normalised response read?
Answer: 97.5%

Question: With C=C(c1ccc(C(=O)O)cc1)c1cc2c(cc1C)C(C)(C)CCC2(C)C [Bexarotene] (1 nM) as the compound, how does the normalised response read?
Answer: 109%

Question: C[C@]12CC[C@@H]3c4ccc(O)cc4C[C@@H](CCCCCCCCC[S+]([O-])CCCC(F)(F)C(F)(F)F)[C@H]3[C@@H]1CC[C@@H]2O (some centres not stated) [Fulvestrant] (1 nM) was tested. Which normalised response did it give?
Answer: 97.8%

Question: For CCC1(c2ccc(N)cc2)CCC(=O)NC1=O (configuration not stated) [Aminoglutethimide] (1 nM), which normalised response is on record?
Answer: 104%

Question: Which normalised response does the source give for COc1cc2nccc(Oc3ccc(NC(=O)C4(C(=O)Nc5ccc(F)cc5)CC4)cc3)c2cc1OC [Cabozantinib] (0.1 nM) here?
Answer: 103%

Question: How did the normalised response turn out when C[C@@H](Oc1cc(-c2cnn(C3CCNCC3)c2)cnc1N)c1c(Cl)ccc(F)c1Cl [Crizotinib] (1 nM) was run?
Answer: 99.8%

test system: SK-BR-3; assay: as above; conditions: incubation time: 72 h
Summary of the method: as §1

Question: With CN(N=O)C(=O)N[C@@H](C=O)[C@@H](O)[C@H](O)[C@H](O)CO [Streptozocin] (1 nM) as the compound, how does the normalised response read?
Answer: 106%

Question: How did the normalised response turn out when C=C(c1ccc(C(=O)O)cc1)c1cc2c(cc1C)C(C)(C)CCC2(C)C [Bexarotene] (1 nM) was run?
Answer: 102%

Question: For CCC1(c2ccc(N)cc2)CCC(=O)NC1=O (configuration not stated) [Aminoglutethimide] (1 nM), which normalised response is on record?
Answer: 103%

Question: With COc1cc2nccc(Oc3ccc(NC(=O)C4(C(=O)Nc5ccc(F)cc5)CC4)cc3)c2cc1OC [Cabozantinib] (0.1 nM) as the compound, how does the normalised response read?
Answer: 97.5%

test system: CAL-120; assay: as above; conditions: incubation time: 72 h
Summary of the method: as §1

Question: For CN(N=O)C(=O)N[C@@H](C=O)[C@@H](O)[C@H](O)[C@H](O)CO [Streptozocin] (1 nM), which normalised response is on record?
Answer: 103%

Question: C=C(c1ccc(C(=O)O)cc1)c1cc2c(cc1C)C(C)(C)CCC2(C)C [Bexarotene] (1 nM) was tested. Which normalised response did it give?
Answer: 99.6%

Question: C[C@]12CC[C@@H]3c4ccc(O)cc4C[C@@H](CCCCCCCCC[S+]([O-])CCCC(F)(F)C(F)(F)F)[C@H]3[C@@H]1CC[C@@H]2O (some centres not stated) [Fulvestrant] (1 nM) was tested. Which normalised response did it give?
Answer: 97.4%

Question: Which normalised response does the source give for CCC1(c2ccc(N)cc2)CCC(=O)NC1=O (configuration not stated) [Aminoglutethimide] (1 nM) here?
Answer: 106%

Question: For COc1cc2nccc(Oc3ccc(NC(=O)C4(C(=O)Nc5ccc(F)cc5)CC4)cc3)c2cc1OC [Cabozantinib] (0.1 nM), which normalised response is on record?
Answer: 103%

Question: For C[C@@H](Oc1cc(-c2cnn(C3CCNCC3)c2)cnc1N)c1c(Cl)ccc(F)c1Cl [Crizotinib] (1 nM), which normalised response is on record?
Answer: 91.7%

test system: CAL-148; assay: as above; conditions: incubation time: 72 h
Summary of the method: as §1

Question: Which normalised response does the source give for CN(N=O)C(=O)N[C@@H](C=O)[C@@H](O)[C@H](O)[C@H](O)CO [Streptozocin] (1 nM) here?
Answer: 102%

Question: Which normalised response does the source give for C=C(c1ccc(C(=O)O)cc1)c1cc2c(cc1C)C(C)(C)CCC2(C)C [Bexarotene] (1 nM) here?
Answer: 107%

Question: With C[C@]12CC[C@@H]3c4ccc(O)cc4C[C@@H](CCCCCCCCC[S+]([O-])CCCC(F)(F)C(F)(F)F)[C@H]3[C@@H]1CC[C@@H]2O (some centres not stated) [Fulvestrant] (1 nM) as the compound, how does the normalised response read?
Answer: 103%

Question: How did the normalised response turn out when CCC1(c2ccc(N)cc2)CCC(=O)NC1=O (configuration not stated) [Aminoglutethimide] (1 nM) was run?
Answer: 108%

Question: COc1cc2nccc(Oc3ccc(NC(=O)C4(C(=O)Nc5ccc(F)cc5)CC4)cc3)c2cc1OC [Cabozantinib] (0.1 nM) was tested. Which normalised response did it give?
Answer: 99.7%

Question: C[C@@H](Oc1cc(-c2cnn(C3CCNCC3)c2)cnc1N)c1c(Cl)ccc(F)c1Cl [Crizotinib] (1 nM) was tested. Which normalised response did it give?
Answer: 91.3%

test system: MFM-223; assay: as above; conditions: incubation time: 72 h
Summary of the method: as §1

Question: With CN(N=O)C(=O)N[C@@H](C=O)[C@@H](O)[C@H](O)[C@H](O)CO [Streptozocin] (1 nM) as the compound, how does the normalised response read?
Answer: 105%

Question: Which normalised response does the source give for C=C(c1ccc(C(=O)O)cc1)c1cc2c(cc1C)C(C)(C)CCC2(C)C [Bexarotene] (1 nM) here?
Answer: 97.5%
